Reference: patent publication US6894046B2, “IL-5 inhibiting 6-azauracil derivatives” (Janssen Pharmaceutica N.V., priority 1998, dated 2005)

The compounds below were run on IL-5 production in human blood (assay: In vitro inhibition of IL-5 production in human blood (phytohemagglutinin-stimulated whole blood, ELISA)). Conditions: test dose 1×10^−6 M, phytohemagglutinin 2 μg/ml, 48 hours.
Assay type: cell-based
Procedure: EXAMPLE C.1: IN VITRO INHIBITION OF IL-5 PRODUCTION IN HUMAN BLOOD
Peripheral blood from healthy male donors was drawn into heparinized syringes (12.5 U heparin/ml). Blood samples were three-fold diluted in RMPI 1640 medium (Life Technologies, Belgium) supplemented with 2 mM L-glutamine, 100 U/ml penicillin and 100 μg/ml streptomycin, and 300 μl fractions were distributed in 24-well multidisc plates. Blood samples were preincubated (60 minutes at 37° C.) in a humidified 6% CO2-atmosphere with 100 μl of drug solvent (final concentration 0.02% dimethylsulfoxide in RPMI 1640) or with 100 μl of an appropriate dose of test compound before being stimulated by the addition of 100 μl of phytohemagglutinin HA17 (Murex, UK) at a final concentration of 2 μg/ml. After 48 hours, cell-free supernatant fluids were collected by centrifugation and stored at −70° C. until tested for the presence of IL-5.
IL-5 measurements were conducted as described in Van Wauwe et al. (1996, Inflamm Res, 45, 357-363) on page 358 using ELISA.
Table 6 lists the percentage inhibition of IL-5 production (column “% inh”) at a test dose of 1×10^−6 M, or in case the percentage inhibition is marked with an “*” 1×10^−5 M, for the compounds of the present invention.

| Compound | % inh. (percentage inhibition of IL-5 production) [%] |
| --- | --- |
| CC(=O)N1CCC(c2sc(C(C)(C)c3c(Cl)cc(-n4ncc(=O)[nH]c4=O)cc3Cl)nc2-c2ccccc2)CC1 [Compound 39] | 72 |
| CC(C)(NC(=O)c1cccnc1)c1c(Cl)cc(-n2ncc(=O)[nH]c2=O)cc1Cl [Compound 101] | 19 |
| Cc1ccnc(C)c1-c1nc(C(C)(C)c2c(Cl)cc(-n3ncc(=O)[nH]c3=O)cc2Cl)no1.ClCCl [Compound 151] | 74 |
| Cc1c(F)cccc1-c1nc(C(C)(C)c2c(Cl)cc(-n3ncc(=O)[nH]c3=O)cc2Cl)no1 [Compound 144] | 90 |
| CC(C)OC(=O)c1sc(C(C)(C)c2c(Cl)cc(-n3ncc(=O)[nH]c3=O)cc2Cl)nc1-c1ccccc1 [Compound 122] | 94 |
| CC(C)(c1nc(-c2cccs2)c(CC(=O)O)s1)c1c(Cl)cc(-n2ncc(=O)[nH]c2=O)cc1Cl [Compound 121] | −3 |
| CC(C)(c1nc(-c2cccs2)cs1)c1c(Cl)cc(-n2ncc(=O)[nH]c2=O)cc1Cl [Compound 5] | 90 |
| CCOC(=O)c1sc(C(C)(C)c2c(Cl)cc(-n3ncc(=O)[nH]c3=O)cc2Cl)nc1-c1ccccc1 [Compound 6] | 94 |
| Cc1ccc(-c2csc(C(C)(C)c3c(Cl)cc(-n4ncc(=O)[nH]c4=O)cc3Cl)n2)s1 [Compound 76] | 75 |
| Cc1ccc(-c2nc(C(C)(C)c3c(Cl)cc(-n4ncc(=O)[nH]c4=O)cc3Cl)sc2Br)s1 [Compound 111] | 88 |
| CC(C)(c1noc(C2CCNCC2)n1)c1c(Cl)cc(-n2ncc(=O)[nH]c2=O)cc1Cl.Cl [Compound 152] | 21 |
| CC(C)(c1noc(-c2ccccc2CO)n1)c1c(Cl)cc(-n2ncc(=O)[nH]c2=O)cc1Cl [Compound 155] | 85 |
| 1′-[[2-[1-[2,6-dichloro-4-(4,5-dihydro-3,5-dioxo-1,2,4-triazin-2(3H)-yl)phenyl]-1-methylethyl-4-phenyl-5-thiazolyl]acetyl]-(1,4′-dipiperidine) [Compound 24] | 32 |
| Cc1ccc(-c2nc(C(C)(C)c3c(Cl)cc(-n4ncc(=O)[nH]c4=O)cc3Cl)no2)cc1 [Compound 125] | 43 |
| CC(C)(c1nc(-c2ccccc2)c(CC(=O)O)s1)c1c(Cl)cc(-n2ncc(=O)[nH]c2=O)cc1Cl [Compound 19, 2-[1-[2,6-dichloro-4-(4,5-dihydro-3,5-dioxo-1,2,4-triazin-2(3H)-yl)phenyl]1-α-methylethyl]-4-phenyl-5-thiazoleacetic acid] | 13 |
| CC(C)(c1nc(-c2c(F)cccc2F)cs1)c1c(Cl)cc(-n2ncc(=O)[nH]c2=O)cc1Cl [Compound 13] | 75 |
| CC(C)(c1nc(-c2cccc(Cl)c2)cs1)c1c(Cl)cc(-n2ncc(=O)[nH]c2=O)cc1Cl [Compound 8] | 85 |
| CC(C)(c1nc(-c2cccc(F)c2)cs1)c1c(Cl)cc(-n2ncc(=O)[nH]c2=O)cc1Cl [Compound 28] | 83 |
| CN1CCN(c2sc(C(C)(C)c3c(Cl)cc(-n4ncc(=O)[nH]c4=O)cc3Cl)nc2-c2ccccc2)CC1 [Compound 16] | 57 |

Same assay, conditions: test dose 1×10^−6 M, phytohemagglutinin 2 μg/ml, 48 hours, read-out: % inh. (percentage inhibition of IL-5 production)

| Compound | inhibition at 1 µM [%] |
| --- | --- |
| CC(C)(c1nc(-c2ccccc2)c(-c2cccc(O)c2)s1)c1c(Cl)cc(-n2ncc(=O)[nH]c2=O)cc1Cl [Compound 58, 2-[3,5-dichloro-4-[1-[5-(3-hydroxyphenyl)4-phenyl-2-thiazolyl]-1-methyl-ethyl]phenyl]-1,2,4-triazine-3,5(2H,4H)-dione] | 84 |
| CC(C)(c1nc(-c2ccsc2)cs1)c1c(Cl)cc(-n2ncc(=O)[nH]c2=O)cc1Cl [Compound 72, 2-[3,5-dichloro-4-[1-methyl-1-[4-(3-thienyl)-2-thiazolyl]ethyl]phenyl]-1,2,4-triazine-3,5(2H,4H)-dione] | 84 |
